{"source": "patent US20230141284A1", "about": "“CANCER THERAPEUTIC METHOD” (ONO PHARMACEUTICAL CO., LTD., priority 2020, published 2023)", "key": {"IRF pathway": {"tested_on": "IRF pathway", "assay": "Verification of STING agonistic activity (IRF pathway in cells of PCT/EP2017/59781)", "format": "cell-based", "details": "cells described in PCT/EP2017/59781, about 24 hours incubation", "procedure": "The cells described at lines 37-39 on page 18 in the publication of PCT application with application number PCT/EP2017/59781 were suspended in RPMI medium to prepare 2×10^6 cells/mL cell suspension. 50 μL of cell suspensions were dispensed into a 96-well plate, to which 50 μL of 6 to 20,000 nM compound solutions were further added, followed by incubation at 37° C. for about 24 hours. 10 μL of the cell suspensions were collected from each well, which were mixed with 50 μL of Quanti-luc (Invivogen), and then the activity of the IRF pathway was measured by detecting luminescence using a microplate reader."}, "[1]": {"tested_on": "BTK, KDR, each subtype of PKCa to t, each CDK of CDK2 to 9, FAK, TIE2, RAF1 and BRAF", "assay": "Inhibitory activity against various kinases (mobility shift, LabChip)", "format": "biochemical", "details": "4 μmol/L test substance solution (4 times the final concentration)", "procedure": "4 μmol/L of the test substance solution (the compound pertaining to the present invention produced in Example 1) (at 4 times the final concentration) was prepared by dissolving it to the assay buffer (20 mmol/L HEPES, 0.01% Triton X-100, 1 mmol/L DTT, pH 7.5). 4 μmol/L of the substrate/ATP/metal solution (at 4 times the final concentration) was prepared by dissolving it to the kit buffer (20 mmol/L HEPES, 0.01% Triton X-100, 5 mmol/L DTT, pH 7.5). Various kinase solutions at twice the final concentration were prepared by dissolving them to the assay buffer. 5 μL of the test substance solution, 5 μL of the substrate/ATP/metal solution and 10 μL of the kinase solution were mixed in wells of a polypropylene 384-well plate, and the mixture thereof was reacted at room temperature for 1 to 5 hours. The reaction was stopped by adding 70 μL of the termination buffer (QuickScout Screening Assist MSA; Carna Biosciences). The substrate peptide and phosphorylated peptide in the reaction solution were separated and quantified by LabChip system (Perkin Elmer). The kinase reaction was evaluated based on the product ratio (P/(P+S)) calculated from the peak height (S) of the substrate peptide and the peak height (P) of the phosphorylated peptide. The various kinases used in this evaluation are as follows: BTK, KDR, each subtype of PKCa to t, each CDK of CDK2 to 9, FAK, TIE2, RAF1 and BRAF."}, "[2]": {"tested_on": "colon cancer cell line MC38", "assay": "Anti-tumor effect in subcutaneously colon cancer cell line MC38 tumor-bearing mouse model (Example 17)", "format": "in vivo, mice (C57/BL6)", "details": "3 mg/kg, administered 7 days after transplantation, measured until Day 26", "procedure": "Seven days after transplantation, the subcutaneously MC38 tumor-bearing mice were grouped based on tumor volume, and the Vehicle group (n=8) and group to which the compound shown in Example 1 (3 mg/kg, n=6) was administered were set. The changes in tumor volume were continuously measured until 26 days after transplantation (Day 26). The tumor volume was calculated by the following formula:\n[Tumor volume (mm^3)]=[major axis (mm)]×[minor axis (mm)]^2×0.5"}, "IDO1": {"biological_target": "T1, IDO1 (Homo sapiens, UniProt P14902)", "T1 construct": "His-tag; purchased BPS Bioscience", "T1 sequence (P14902 whole entry)": "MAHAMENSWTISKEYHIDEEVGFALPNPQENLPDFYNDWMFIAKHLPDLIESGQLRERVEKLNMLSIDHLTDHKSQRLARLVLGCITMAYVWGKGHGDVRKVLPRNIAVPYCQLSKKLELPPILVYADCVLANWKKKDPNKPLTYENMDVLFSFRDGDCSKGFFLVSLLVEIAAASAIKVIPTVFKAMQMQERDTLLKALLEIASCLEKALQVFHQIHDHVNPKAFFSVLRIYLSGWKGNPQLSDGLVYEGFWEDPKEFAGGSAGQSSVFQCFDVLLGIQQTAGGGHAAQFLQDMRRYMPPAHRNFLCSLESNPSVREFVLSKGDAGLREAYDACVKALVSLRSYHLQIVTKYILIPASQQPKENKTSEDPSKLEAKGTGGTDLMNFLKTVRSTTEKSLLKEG", "assay": "IDO1 inhibitory activity (IDO1 Fluorogenic Inhibitor Screening Assay Kit)", "format": "biochemical", "details": "compound solutions of 0.6 to 200 μmol/L added", "procedure": "The evaluation of IDO1 inhibitory activity was carried out using the IDO1 Fluorogenic Inhibitor Screening Assay Kit (BPS Bioscience). Specifically, IDO1 Fluorogenic Reaction Solution was dissolved, of which 180 μL were added to each well. Then, 10 μL of the compounds at the respective concentrations of 0.6, 2, 6, 20, 60 and 200 μmol/L were added thereto. Further, after adding 10 μL of IDO1 His-Tag solution thereto, and the mixture thereof was incubated at room temperature for 1 hour, and then 20 μL of Fluorescence Solution was added thereto, and the mixture thereof was incubated at 37° C. for 4 hours. After standing them at room temperature for 10 minutes, the fluorescence was measured using a microplate reader (excitation: 400 nm, emission: 510 nm)."}}, "data": [{"smiles": "COC(=O)c1cc(-c2ncc(-c3cn[nH]c3)c3onc(N)c23)c(F)cc1N", "note": "[Example 1, methyl 2-amino-5-(3-amino-7-(1H-pyrazol-4-yl)isoxazolo[4,5-c]pyridin-4-yl)-4-fluorobenzoate]", "values": [{"measurement": "IRF activating effect", "setting": "IRF pathway", "result": "no IRF activating effect"}, {"measurement": "inhibitory activity against various kinases", "setting": "[1]", "result": "no significantly inhibit activities"}, {"measurement": "tumor growth (tumor volume)", "setting": "[2]", "result": "almost completely suppressed the tumor growth"}, {"measurement": "IDO1 inhibitory activity", "setting": "IDO1", "result": "no IDO1 inhibitory activity"}]}]}
